Measurements reported in ChEMBL document CHEMBL3526097, “Preclinical disposition of GDC-0973 and prospective and retrospective analysis of human dose and efficacy predictions” (Drug Metab Dispos, 2012).

Assays:
Cynomolgus monkey = test: AUC (infinity) in cynomolgus monkey at 3 mg/kg, iv by LC-MS/MS analysis; type: ADME, organism-based, Macaca fascicularis, Plasma; design: time infinity, dose 3 mg/kg, route intravenous; conditions: in vivo
[1] = Tmax in nu/nu mouse at 3 mg/kg, po by LC-MS/MS analysis; type: ADME, organism-based; design: dose 3 mg/kg, route oral; conditions: in vivo
[2] = Cmax in nu/nu mouse at 3 mg/kg, po by LC-MS/MS analysis; type: ADME, organism-based; design: dose 3 mg/kg, route oral; conditions: in vivo
[3] = Volume of distribution at steady state in Sprague-Dawley rat at 3 mg/kg, iv by LC-MS/MS analysis; type: ADME, organism-based; design: dose 3 mg/kg, route intravenous; conditions: in vivo, read-out: Vdss
Rattus norvegicus = test: AUC (infinity) in Sprague-Dawley rat at 3 mg/kg, iv by LC-MS/MS analysis; type: ADME, organism-based, Plasma; design: dose 3 mg/kg, route intravenous, time infinity; conditions: in vivo
Plasma = test: Fraction unbound in mouse plasma at 3 mg/kg after 2 hrs; type: ADME, organism-based; design: dose 3 mg/kg; conditions: in vivo
[4] = Apparent permeability from basolateral to apical side of MDCK1 cells at 10 uM after 60 mins; type: ADME, cell-based, Canis lupus familiaris; conditions: dog, MDCK
[5] = Terminal half life in cynomolgus monkey at 3 mg/kg, iv by LC-MS/MS analysis; type: ADME, organism-based, Macaca fascicularis; design: dose 3 mg/kg, route intravenous; conditions: in vivo, read-out: beta t1/2 (converted)
[6] = molecular target: ATP-dependent translocase ABCB1 (Homo sapiens, UniProt P08183); test: Inhibition of MDR1 (unknown origin) at 25 uM; type: ADME
ATP-dependent translocase ABCB1, sequence (P08183 whole entry): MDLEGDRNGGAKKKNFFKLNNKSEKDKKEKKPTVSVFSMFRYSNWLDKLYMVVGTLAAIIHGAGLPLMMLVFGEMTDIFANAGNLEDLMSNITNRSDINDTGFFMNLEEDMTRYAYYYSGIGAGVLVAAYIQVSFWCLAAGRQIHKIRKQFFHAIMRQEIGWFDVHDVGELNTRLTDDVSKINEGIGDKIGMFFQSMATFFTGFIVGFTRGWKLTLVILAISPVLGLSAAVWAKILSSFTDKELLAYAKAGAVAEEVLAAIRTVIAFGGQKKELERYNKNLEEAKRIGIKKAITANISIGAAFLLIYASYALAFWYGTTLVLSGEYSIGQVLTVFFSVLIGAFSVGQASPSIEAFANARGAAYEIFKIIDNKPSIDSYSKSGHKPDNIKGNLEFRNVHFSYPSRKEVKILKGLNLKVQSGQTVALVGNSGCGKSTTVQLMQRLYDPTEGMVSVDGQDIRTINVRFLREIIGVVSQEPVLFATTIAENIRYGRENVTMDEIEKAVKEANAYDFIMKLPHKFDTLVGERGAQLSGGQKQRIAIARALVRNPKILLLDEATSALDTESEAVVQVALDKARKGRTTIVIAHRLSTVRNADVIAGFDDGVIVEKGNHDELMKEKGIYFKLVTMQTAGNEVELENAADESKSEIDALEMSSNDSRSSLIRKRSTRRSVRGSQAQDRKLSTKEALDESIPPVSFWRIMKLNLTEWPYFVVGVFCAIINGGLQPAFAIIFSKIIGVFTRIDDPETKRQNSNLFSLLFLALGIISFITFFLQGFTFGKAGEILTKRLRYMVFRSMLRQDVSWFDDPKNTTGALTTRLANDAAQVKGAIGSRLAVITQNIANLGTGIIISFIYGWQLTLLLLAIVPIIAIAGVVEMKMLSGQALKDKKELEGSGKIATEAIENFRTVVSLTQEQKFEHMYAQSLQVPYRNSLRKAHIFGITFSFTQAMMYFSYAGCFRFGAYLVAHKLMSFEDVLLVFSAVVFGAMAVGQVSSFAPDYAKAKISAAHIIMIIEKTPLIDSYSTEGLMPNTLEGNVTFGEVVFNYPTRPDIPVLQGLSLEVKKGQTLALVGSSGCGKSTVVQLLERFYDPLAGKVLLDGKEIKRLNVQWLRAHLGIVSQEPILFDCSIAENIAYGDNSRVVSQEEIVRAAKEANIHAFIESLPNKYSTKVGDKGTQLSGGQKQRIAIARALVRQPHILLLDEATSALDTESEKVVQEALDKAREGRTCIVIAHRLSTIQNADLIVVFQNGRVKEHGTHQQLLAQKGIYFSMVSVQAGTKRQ

[7] = AUC (infinity) in Sprague-Dawley rat at 3 mg/kg, po by LC-MS/MS analysis; type: ADME, organism-based; design: time infinity, dose 3 mg/kg, route oral; conditions: plasma
[8] = Ratio of unbound drug level in brain to plasma in mouse at 3 mg/kg after 2 hrs; type: ADME, organism-based; design: dose 3 mg/kg; conditions: read-out: BPR
[9] = Tmax in cynomolgus monkey at 3 mg/kg, po by LC-MS/MS analysis; type: ADME, organism-based, Macaca fascicularis; design: dose 3 mg/kg, route oral; conditions: in vivo
Canis familiaris = test: AUC (infinity) in Beagle dog at 3 mg/kg, iv by LC-MS/MS analysis; type: ADME, organism-based, Canis lupus familiaris, Plasma; design: dose 3 mg/kg, route intravenous, time infinity; conditions: in vivo
Brain [10] = test: Unbound AUC in mouse brain; type: ADME, tissue-based; conditions: in vivo
[11] = Oral bioavailability in cynomolgus monkey at 3 mg/kg by LC-MS/MS analysis; type: ADME, organism-based, Macaca fascicularis; conditions: in vivo
[12] = Cmax in Sprague-Dawley rat at 3 mg/kg, po by LC-MS/MS analysis; type: ADME, organism-based; design: dose 3 mg/kg, route oral; conditions: in vivo
[13] = Plasma clearance in Beagle dog at 3 mg/kg, iv by LC-MS/MS analysis; type: ADME, organism-based, Canis lupus familiaris; design: dose 3 mg/kg, route intravenous
[14] = Efflux ratio of permeability from […] side in MDCK1 cells at 10 uM after 60 mins; type: ADME, cell-based, Canis lupus familiaris; conditions: dog, MDCK
[15] = Terminal half life in nu/nu mouse at 1 mg/kg, iv by LC-MS/MS analysis; type: ADME, organism-based; design: dose 1 mg/kg, route intravenous; conditions: in vivo, read-out: beta t1/2 (converted)
[16] = Ratio of drug level in brain to plasma in mouse at 3 mg/kg after 2 hrs; type: ADME, organism-based; design: dose 3 mg/kg; conditions: read-out: BPR
[17] = Tmax in Beagle dog at 3 mg/kg, po by LC-MS/MS analysis; type: ADME, organism-based, Canis lupus familiaris; design: dose 3 mg/kg, route oral; conditions: in vivo
[18] = AUC (infinity) in cynomolgus monkey at 3 mg/kg, po by LC-MS/MS analysis; type: ADME, organism-based, Macaca fascicularis; design: time infinity, dose 3 mg/kg, route oral; conditions: plasma
[19] = Ratio of drug level in tumor to plasma in mouse xenografted with human COLO205 cells at 3 mg/kg after 2 hrs; type: ADME, organism-based, COLO 205; design: dose 3 mg/kg
[20] = Drug uptake in tumor of mouse xenografted with human COLO205 cells at 3 mg/kg after 2 hrs; type: ADME, organism-based, Neoplasm, COLO 205; design: dose 3 mg/kg; conditions: read-out: Drug uptake
[21] = AUC (infinity) in nu/nu mouse at 3 mg/kg, po by LC-MS/MS analysis; type: ADME, organism-based; design: time infinity, dose 3 mg/kg, route oral; conditions: plasma
[22] = Volume of distribution at steady state in cynomolgus monkey at 3 mg/kg, iv by LC-MS/MS analysis; type: ADME, organism-based, Macaca fascicularis; design: dose 3 mg/kg, route intravenous; conditions: in vivo, read-out: Vdss
[23] = Oral bioavailability in nu/nu mouse at 3 mg/kg by LC-MS/MS analysis; type: ADME, organism-based; conditions: in vivo
[24] = Terminal half life in Beagle dog at 3 mg/kg, iv by LC-MS/MS analysis; type: ADME, organism-based, Canis lupus familiaris; design: dose 3 mg/kg, route intravenous; conditions: in vivo, read-out: beta t1/2 (converted)
MDR1 [25] = test: Apparent permeability from basolateral to apical side of MDCK1 cells expressing MDR1 at 25 uM after 2 hrs by LC-MS/MS analysis; type: ADME, cell-based, Canis lupus familiaris; conditions: dog, MDCK-MDR1
[26] = Antiproliferative activity against human COLO205 cells expressing B-raf V600E mutant; type: functional, cell-based; conditions: COLO 205
[27] = Oral bioavailability in Sprague-Dawley rat at 3 mg/kg by LC-MS/MS analysis; type: ADME, organism-based; conditions: in vivo
[28] = Terminal half life in Sprague-Dawley rat at 3 mg/kg, iv by LC-MS/MS analysis; type: ADME, organism-based; design: dose 3 mg/kg, route intravenous; conditions: in vivo, read-out: beta t1/2 (converted)
[29] = Fraction unbound in mouse brain; type: ADME, tissue-based
COLO 205 = test: Antitumor activity against human COLO205 cells expressing B-raf V600E mutant xenografted in po dosed mouse assessed as inhibition of tumor growth; type: functional, organism-based
Brain [30] = test: Unbound concentration in mouse brain at 3 mg/kg after 2 hrs; type: ADME, organism-based; design: dose 3 mg/kg; conditions: in vivo
[31] = Plasma clearance in Sprague-Dawley rat at 3 mg/kg, iv by LC-MS/MS analysis; type: ADME, organism-based; design: dose 3 mg/kg, route intravenous
[32] = Volume of distribution at steady state in nu/nu mouse at 1 mg/kg, iv by LC-MS/MS analysis; type: ADME, organism-based; design: dose 1 mg/kg, route intravenous; conditions: in vivo, read-out: Vdss
[33] = Volume of distribution at steady state in Beagle dog at 3 mg/kg, iv by LC-MS/MS analysis; type: ADME, organism-based, Canis lupus familiaris; design: dose 3 mg/kg, route intravenous; conditions: in vivo, read-out: Vdss
MDR1 [34] = test: Efflux ratio of permeability from […] side in MDCK1 cells expressing MDR1 at 25 uM after 2 hrs by LC-MS/MS analysis; type: ADME, cell-based, Canis lupus familiaris; conditions: dog, MDCK-MDR1
[35] = molecular target: Dual specificity mitogen-activated protein kinase kinase 1 (Homo sapiens, UniProt Q02750); test: Inhibition of MEK1 (unknown origin)
Dual specificity mitogen-activated protein kinase kinase 1, sequence (Q02750 whole entry): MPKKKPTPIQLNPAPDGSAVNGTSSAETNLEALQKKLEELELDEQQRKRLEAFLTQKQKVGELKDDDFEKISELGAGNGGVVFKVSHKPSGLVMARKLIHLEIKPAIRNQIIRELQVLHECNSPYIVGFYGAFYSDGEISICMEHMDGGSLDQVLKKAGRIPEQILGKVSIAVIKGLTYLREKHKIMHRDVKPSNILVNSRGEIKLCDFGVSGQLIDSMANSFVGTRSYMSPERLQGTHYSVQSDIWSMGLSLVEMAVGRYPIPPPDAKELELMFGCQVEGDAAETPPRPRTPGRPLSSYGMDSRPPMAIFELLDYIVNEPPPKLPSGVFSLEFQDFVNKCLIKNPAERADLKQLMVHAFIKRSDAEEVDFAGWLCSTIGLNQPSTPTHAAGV

[36] = Tmax in Sprague-Dawley rat at 3 mg/kg, po by LC-MS/MS analysis; type: ADME, organism-based; design: dose 3 mg/kg, route oral; conditions: in vivo
[37] = Oral bioavailability in Beagle dog at 3 mg/kg by LC-MS/MS analysis; type: ADME, organism-based, Canis lupus familiaris; conditions: in vivo
[38] = Cmax in cynomolgus monkey at 3 mg/kg, po by LC-MS/MS analysis; type: ADME, organism-based, Macaca fascicularis; design: dose 3 mg/kg, route oral; conditions: in vivo
[39] = Apparent permeability from apical to basolateral side of MDCK1 cells at 10 uM after 60 mins; type: ADME, cell-based, Canis lupus familiaris; conditions: dog, MDCK
Mus musculus = test: AUC (infinity) in nu/nu mouse at 1 mg/kg, iv by LC-MS/MS analysis; type: ADME, organism-based, Plasma; design: time infinity, dose 1 mg/kg, route intravenous; conditions: in vivo

Question: What does the source list for `O=C(c1ccc(F)c(F)c1Nc1ccc(I)cc1F)N1CC(O)([C@@H]2CCCCN2)C1` [COBIMETINIB]?
Answer: AUC (Cynomolgus monkey): 3340 ng·h/mL; Tmax [1]: 0.25 h; Cmax [2]: 184 ng/mL; Vd [3]: 34.6 L/kg; AUC (Rattus norvegicus): 2320 ng·h/mL; Cp(f) (Plasma): 5.7 nM; Papp B→A at 1 h, 10 µM [4]: 4 ×10⁻⁶ cm/s; half-life [5]: 10.3 h; inhibition (INH) [6]: Not Active; AUC(0-inf) [7]: 1590 ng·h/mL; Kp uu at 2 h [8]: 0.018; Tmax [9]: 2 h; AUC (Canis familiaris): 17100 ng·h/mL; fAUC (Brain [10]): 3 nM·h; bioavailability [11]: 19.6%; Cmax [12]: 193 ng/mL; clearance [13]: 5.53 mL/min/kg; efflux ratio at 1 h, 10 µM [14]: 3; half-life [15]: 3.92 h; Kp at 2 h [16]: 0.5; Tmax [17]: 2.67 h; AUC(0-inf) [18]: 640 ng·h/mL; Kp at 2 h [19]: 9; concentration at 2 h [20]: 1560 nM; AUC(0-inf) [21]: 1510 ng·h/mL; Vd [22]: 29.6 L/kg; bioavailability [23]: 53.9%; half-life [24]: 9.19 h; Papp B→A at 2 h, 25 µM (MDR1 [25]): 35.4 ×10⁻⁶ cm/s; IC50 [26]: 8 nM; bioavailability [27]: 69%; half-life [28]: 13.3 h; fraction unbound [29]: 0.0012; TGI (COLO 205): Dose-dependent effect; Concentration (Brain [30]): 0.1 nM; clearance [31]: 37.8 mL/min/kg; Vd [32]: 9.4 L/kg; Vd [33]: 3.99 L/kg; efflux ratio at 2 h, 25 µM (MDR1 [34]): 40; IC50 [35]: 4.2 nM; Tmax [36]: 3.5 h; bioavailability [37]: 69.1%; Cmax [38]: 50 ng/mL; Papp A→B at 1 h, 10 µM [39]: 1.39 ×10⁻⁶ cm/s; AUC (Mus musculus): 935 ng·h/mL
